“And” between values parts separate entries of the source, which are not always exact repeats. Equal values may be shown once.
Legend:
PfTyrRS [1] = target: T1, PfTyrRS (Plasmodium falciparum, UniProt Q8IAR7); assay: ATP consumption by PfTyrRS (Kinase Glo); format: biochemical; settings: Inhibition of PfTyrRS (Kinase Glo) IC50, PfTyrRS 25 nM, ATP 10 μM, tyrosine 200 μM, cognate tRNA^Tyr 4.8 μM, 37°C 1 h
Procedure: Consumption of ATP was measured using a luciferase-based assay as per the manufacturer’s instructions (Kinase-Glo Luminescent Kinase Assay, Promega).

PfTyrRS [2] = target: T1, PfTyrRS; assay: Differential scanning fluorimetry (DSF) of PfTyrRS; format: binding
Procedure: The effect on ML471 and analogues on the thermal stability of TyrRS enzymes was assayed as previously described. […] SYPRO Orange (Sigma-Aldrich; 5,000X concentrate in DMSO) was added to the reaction mixture at a final concentration of 5X. 25 μL of the sample was added into each well of a 96-well qPCR plate (Applied Biosystems). The plate was sealed and analysed using StepOnePlus Real-Time PCR system (Applied Biosystems). The samples were heated from 20°C to 90°C with a 1% continuous gradient. The thermal unfolding curve was plotted as the first derivative curve of the raw fluorescence values. The melting temperature (Tm), defined as the peak of the first derivative curve, was used to assess the thermal stability of protein-ligand complexes.

[3] = test system: P. falciparum (3D7, ring stage) cultures; settings: read-out: P. falciparum 72-h IC50 (3D7); 3D7, 72 h exposure; ref [16]; cited from earlier work
HCT116 = settings: read-out: HCT116 IC50_72h; 72 h; ref [16]; cited from earlier work

T1 sequence (Q8IAR7 entry or part of it): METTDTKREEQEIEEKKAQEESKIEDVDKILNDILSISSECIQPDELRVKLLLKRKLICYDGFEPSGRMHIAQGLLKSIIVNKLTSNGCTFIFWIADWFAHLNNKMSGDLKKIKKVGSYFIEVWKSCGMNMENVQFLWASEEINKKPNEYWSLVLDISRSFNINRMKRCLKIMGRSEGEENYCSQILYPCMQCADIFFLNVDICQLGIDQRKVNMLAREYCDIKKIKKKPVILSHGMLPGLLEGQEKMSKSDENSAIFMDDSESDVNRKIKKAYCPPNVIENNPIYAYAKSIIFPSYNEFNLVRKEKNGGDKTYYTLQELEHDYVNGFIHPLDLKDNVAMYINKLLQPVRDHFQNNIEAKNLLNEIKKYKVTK

With `Nc1ncnc2c1ncn2[C@@H]1O[C@H](COS(N)(=O)=O)[C@@H](O)[C@H]1O` [AMS, adenosine 5’-monosulfamate, reference compound] as the compound, how does the IC50 (PfTyrRS [1]) read?
Its IC50 is 51.7 µM and 52 µM.

And the Kd (PfTyrRS [2])?
The Kd was 1.3 nM.

What about the ΔTm at 50 µM (PfTyrRS [2]; 2 h, read-out: PfTyrRS binding (DSF) Delta Tm) of the same compound?
Its ΔTm at 50 µM is 13.6 ± 0.7 °C.

What about the “PfTyrRS Tm” value (PfTyrRS [2]; with sulfamate, ATP, tyrosine and tRNA, apo 49.9 ± 0.6) of the same compound?
The value was 63.5 ± 0.7 °C.

And the IC50 [3]?
Its IC50 is 1.8 ± 0.6 nM.

What about the IC50 (HCT116) of the same compound?
Its IC50 is 26 nM.

Reference: article PMC11671014 (PLOS Pathogens, 2024)
